Activity calls are given as the source filed them. The rule behind the calls is not given here.

Test [1] is described as follows: Binding affinity to telo24 G-quadruplex DNA (unknown origin) assessed as compound:telo24 complex formation at ratio of 2:1 after 14 hrs by electrophoresis mobility shift assay.
A short description of test [2]: Stabilization of telo96 G-quadruplex DNA (unknown origin) assessed as melting temperature at 16 eq. by spectropolarimeter analysis in presence of KCl (reference value: 55 degC).
Test [3] can be described thus: Stabilization of telo72 G-quadruplex DNA (unknown origin) assessed as melting temperature at 12 eq. by spectropolarimeter analysis in presence of KCl (reference value: 55 degC).
A short description of test [4]: Stabilization of telo48 G-quadruplex DNA (unknown origin) assessed as melting temperature at 8 eq. by spectropolarimeter analysis in presence of KCl (Rvb= 57 degC).
A short description of test [5]: Stabilization of telo24 G-quadruplex DNA (unknown origin) assessed as melting temperature at 4 eq. by spectropolarimeter analysis in presence of KCl (reference value: 59 degC).
Test [6] can be described thus: Binding affinity to telo96 G-quadruplex DNA (unknown origin) assessed as change of topology from hybrid-type to anti-parallel form by CD spectrometry in presence of KCl.
A short description of test [7]: Binding affinity to telo72 G-quadruplex DNA (unknown origin) assessed as change of topology from hybrid-type to anti-parallel form by CD spectrometry in presence of KCl.
A short description of test [8]: Binding affinity to telo48 G-quadruplex DNA (unknown origin) assessed as change of topology from hybrid-type to anti-parallel form by CD spectrometry in presence of KCl.
A short description of test [9]: Binding affinity to telo24 G-quadruplex DNA (unknown origin) assessed as change of topology from hybrid-type to anti-parallel form by CD spectrometry in presence of KCl.
The nature of test [10]: Binding affinity to telo96 G-quadruplex DNA (unknown origin) assessed as appearance of new bands with longer migration distances after 14 hrs by electrophoresis mobility shift assay.
Test [11] is described as follows: Binding affinity to telo72 G-quadruplex DNA (unknown origin) assessed as appearance of new bands with longer migration distances after 14 hrs by electrophoresis mobility shift assay.
The nature of test [12]: Binding affinity to telo48 G-quadruplex DNA (unknown origin) assessed as appearance of new bands with longer migration distances after 14 hrs by electrophoresis mobility shift assay.
Test [13] is described as follows: Binding affinity to telo24 G-quadruplex DNA (unknown origin) assessed as appearance of new bands with longer migration distances after 14 hrs by electrophoresis mobility shift assay.

Regarding `NCCCC[C@@H]1NC(=O)c2coc(n2)-c2coc(n2)-c2coc(n2)[C@H](CCCCN)NC(=O)c2coc(n2)-c2coc(n2)-c2coc1n2`, the result in test [1], in test [6], in [7], in test [8], in [9] and in test [10] was Active. Further, the result in [11], in test [12] and in [13] was Active. In addition, the Tm stood at 70 °C in [2], 73 °C in test [3], 76 °C in test [4] and 75 °C in [5].

Values taken from ChEMBL document CHEMBL3217495, “Interaction of long telomeric DNAs with macrocyclic hexaoxazole as a G-quadruplex ligand” (Medchemcomm, 2013).
